This note sets out measurements from US20040186166A1, “Cannabinoid analogs as peroxisome proliferator activated nuclear receptor gamma activators” (priority 2002, published 2004).

One assay has as its target T1, hRXRα (Homo sapiens, UniProt P19793).
T1 construct: expressed in transfected cells; host or cells: HEK293
T1 sequence (P19793 1-462): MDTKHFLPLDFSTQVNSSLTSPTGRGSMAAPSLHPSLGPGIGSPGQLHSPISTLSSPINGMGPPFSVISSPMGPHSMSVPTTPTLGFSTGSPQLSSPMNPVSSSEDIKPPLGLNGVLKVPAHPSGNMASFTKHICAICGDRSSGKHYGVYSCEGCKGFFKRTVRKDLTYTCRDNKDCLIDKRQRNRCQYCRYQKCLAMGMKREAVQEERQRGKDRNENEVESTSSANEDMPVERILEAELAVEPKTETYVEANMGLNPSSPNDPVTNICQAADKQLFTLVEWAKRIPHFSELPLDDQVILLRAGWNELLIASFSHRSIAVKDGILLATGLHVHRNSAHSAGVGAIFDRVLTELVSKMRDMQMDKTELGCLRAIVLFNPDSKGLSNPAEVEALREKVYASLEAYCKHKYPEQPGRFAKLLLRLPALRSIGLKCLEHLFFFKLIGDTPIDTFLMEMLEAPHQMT
Kind of assay: DR1-TK-LUC reporter assay, RXRα. In kind it is cell-based. As to conditions: saturating concentrations, HEK293 cells.

In assay [1] the target is T2, PPARγ / GST-RAC3 (amino acids 613-752) (Mus musculus, UniProt P37238).
T2 construct: made in house; host or cells: PPARγ1: reticulocyte lysate; GST-RAC3: E. coli BL21, kept on glutathione-Sepharose beads
T2 sequence (P37238 1-475 isoform P37238-2): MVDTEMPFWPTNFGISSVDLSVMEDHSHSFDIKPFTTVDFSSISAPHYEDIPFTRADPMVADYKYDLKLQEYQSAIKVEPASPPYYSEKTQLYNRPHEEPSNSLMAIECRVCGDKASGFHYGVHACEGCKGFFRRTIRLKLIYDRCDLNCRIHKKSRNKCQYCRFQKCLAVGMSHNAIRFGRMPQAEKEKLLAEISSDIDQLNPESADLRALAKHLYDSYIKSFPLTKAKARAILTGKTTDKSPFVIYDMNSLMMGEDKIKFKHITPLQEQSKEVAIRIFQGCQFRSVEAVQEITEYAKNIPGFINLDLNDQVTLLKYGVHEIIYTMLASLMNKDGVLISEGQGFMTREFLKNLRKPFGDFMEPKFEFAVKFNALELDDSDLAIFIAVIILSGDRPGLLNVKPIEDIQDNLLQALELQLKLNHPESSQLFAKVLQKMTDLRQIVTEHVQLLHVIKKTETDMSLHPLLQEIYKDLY
T2 sequence (Q9Y6Q9 613-752 partner limits assumed): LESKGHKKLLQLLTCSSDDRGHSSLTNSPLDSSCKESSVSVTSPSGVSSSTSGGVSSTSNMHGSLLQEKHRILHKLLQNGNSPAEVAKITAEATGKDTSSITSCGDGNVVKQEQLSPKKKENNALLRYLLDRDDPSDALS
Kind of assay: GST pull-down assay, PPARγ with GST-RAC3. It is filed as binding. As to conditions: 20 μM AJA. How it is done:
The glutathione S-transferase (GST)-DRIP205 (amino acid 527-970) and GST-RAC3 RID (amino acid 613-752) fusion proteins were expressed in BL21 cells by induction with 0.1 mM isopropyl-β-D-thiogalactopyranoside (IPTG) at room temperature for 4 hours. The bacterial pellet was resuspended in STE buffer (150 mM NaCl, 10 mM Tris pH 8.0, 1 mM EDTA), containing 5 mM dithiothreitol (DTT), 1 mM phenylmethlsulfonyl fluoride (PMSF) and 1.5% Sarkosyl. The cell suspension was sonicated and centrifuged at 7400 rpm at 4° C. for 30 minutes. The supernatant was isolated and 0.02% Triton-X 100 was added, and the mixture was then incubated with 1 ml 50% slurry of glutathione-Sepharose beads on a rotator at 4° C. for 30 minutes. The beads were spun down at 3000 rpm for 10 minutes, the supernatant was removed, and the beads were suspended in 1 ml cold PBS.
Approximately 5 μg of GST-DRIP205 or GST-RAC3 bound on glutathione-Sepharose beads and 4 μl ^35S-methionine-labeled mPPARγ1 were incubated with the indicated concentrations of AJA, GW347845, or vehicle alone in H buffer (20 mM Hepes [pH 7.7], 75 mM KCl, 0.1 mM EDTA, 2.5 mM MgCl2, 0.05% NP40, 0.1 mM methionine, 1 mM DTT) containing 1 mg/ml bovine serum albumin (BSA) on a rotator at 4° C. overnight. After three washes with cold PBS, the bound protein was eluted in SDS sample buffer and boiled for 10 min before SDS-PAGE and autoradiography. […]

With `CCCCCCC(C)(C)c1cc(O)c2c(c1)OC(C)(C)[C@@H]1CC=C(C(=O)O)C[C@@H]21` [AJA, dimethylheptyl-THC-11-oic acid], on hRXRα, the “activation of reporter via RXRα” value is “failed to activate the reporter”. Further, in assay [1], the “binding of PPARγ to GST-RAC3” value is reported as “increased binding”.
